According to PubChem BioAssay (NCI):
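Exposure lasted 48 hours, with cells grown in 96-well plates and compounds tested at five concentrations. GI50 is the concentration that inhibits growth by half. At the TGI there is no net growth.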

Tests used:
Test in all cases: NCI-60 cell line screen, 48 h
[1] = system: EKVX NSCLC
[2] = system: HL-60(TB) leukemia
[3] = system: M14 melanoma
[4] = system: MALME-3M melanoma
[5] = system: MDA-N
[6] = system: NCI-H226 lung
[7] = system: OVCAR-4 ovarian
[8] = system: OVCAR-5 ovarian
[9] = system: SK-MEL-28 melanoma
[10] = system: SK-OV-3 ovarian
[11] = system: SNB-75 CNS

C/C=C1/CN2[C@@H](C3=C[C@@H]4[C@@H]5N(C3=O)c3ccccc3[C@@]53CCN5C/C(=C/C)[C@@H]4C[C@H]53)C[C@@]34c5ccccc5N5C(=O)CC=C([C@H]1C[C@H]23)[C@H]54
TGI [1]: 12.1 µM
TGI [2]: 2.2 µM
TGI [3]: 2.37 µM
TGI [4]: 12.5 µM
TGI [5]: 10.4 µM
TGI [6]: 16.5 µM
TGI [7]: 19.9 µM
TGI [8]: 15 µM
TGI [9]: 3.91 µM
TGI [10]: 16.8 µM
TGI [11]: 17.4 µM

COC(=O)c1ccc(CCC2=CC(=O)C(Br)=CC2=O)cc1
TGI [1]: 38.7 µM
TGI [2]: 5.2 µM
TGI [3]: 28.3 µM
TGI [4]: 30.6 µM
TGI [5]: 31.4 µM
TGI [6]: 30.5 µM
TGI [7]: 30.9 µM
TGI [8]: 33.6 µM
TGI [9]: 31.1 µM
TGI [10]: 38 µM
TGI [11]: 26.9 µM

CCCN=C1Nc2ccccc2[C@@H]2N(C)c3ccccc3C(C)C[C@]12C (some centres undefined)
TGI [1]: > 100 µM
TGI [2]: 56.1 µM
TGI [3]: 33 µM
TGI [4]: 32.5 µM
TGI [5]: 38.7 µM
TGI [6]: 73.4 µM
TGI [7]: 23.4 µM
TGI [8]: 46.8 µM
TGI [9]: 33.5 µM
TGI [11]: 49.8 µM

C=C(C)[C@@H]1CC[C@]2(CO)CC[C@]3(C)[C@H](CC[C@@H]4[C@@]5(C)CC[C@H](O)C(C)(C)[C@@H]5CC[C@]43C)[C@@H]12
TGI [1]: 87.6 µM
TGI [2]: > 100 µM
TGI [3]: > 100 µM
TGI [4]: > 100 µM
TGI [5]: > 100 µM
TGI [6]: > 100 µM
TGI [8]: > 100 µM
TGI [9]: > 100 µM
TGI [11]: 28.9 µM

CC(C)(C)OC(=O)NC1CCCC1C(O)(C1=CCCC1)C1=CCCC1 (centres undefined)
TGI [2]: > 100 µM
TGI [3]: > 100 µM
TGI [5]: > 100 µM
TGI [6]: > 100 µM
TGI [7]: > 100 µM
TGI [8]: > 100 µM
TGI [9]: > 100 µM
TGI [10]: > 100 µM
TGI [11]: > 100 µM

Cc1ccc2ccc(=O)oc2c1
TGI [1]: > 100 µM
TGI [2]: > 100 µM
TGI [3]: > 100 µM
TGI [4]: > 100 µM
TGI [5]: > 100 µM
TGI [6]: > 100 µM
TGI [7]: > 100 µM
TGI [8]: > 100 µM
TGI [9]: > 100 µM
TGI [11]: > 100 µM

Cc1ccc(S(=O)(=O)NC(=O)NC(Cc2ccccc2)C(=O)O)cc1 (centres undefined)
TGI [2]: > 100 µM
TGI [3]: > 100 µM
TGI [4]: > 100 µM
TGI [7]: > 100 µM
TGI [8]: > 100 µM
TGI [9]: > 100 µM
TGI [10]: > 100 µM
TGI [11]: > 100 µM

CCOC(O)C(F)(F)F (centres undefined)
TGI [2]: > 100 µM
TGI [3]: > 100 µM
TGI [5]: > 100 µM
TGI [6]: > 100 µM
TGI [9]: > 100 µM
TGI [10]: > 100 µM
TGI [11]: > 100 µM

O=C(Nc1ccc(-n2cc(-c3ccncc3)c(-c3ccc(O)c(Cl)c3)n2)cc1)c1cc(Cl)cc(Cl)c1
GI50 [1]: 18.2 µM
TGI [1]: > 32.5 µM
GI50 [2]: 1.6 µM
TGI [2]: > 32.5 µM
GI50 [3]: 0.712 µM
TGI [3]: 1.68 µM
GI50 [4]: 2.66 µM
TGI [4]: > 32.5 µM
GI50 [6]: > 32.5 µM
TGI [6]: > 32.5 µM
GI50 [7]: 2.56 µM
TGI [7]: > 32.5 µM
GI50 [8]: > 32.5 µM
TGI [8]: > 32.5 µM
GI50 [9]: 3.19 µM
TGI [9]: > 32.5 µM
GI50 [11]: 1.35 µM
TGI [11]: > 32.5 µM

N#CN=C1c2ccccc2C(=NC#N)c2cc(CO)ccc21
TGI [1]: > 100 µM
TGI [2]: 60.7 µM
TGI [3]: > 100 µM
TGI [5]: > 100 µM
TGI [6]: > 100 µM
TGI [7]: > 100 µM
TGI [8]: > 100 µM
TGI [9]: > 100 µM
TGI [11]: 60.7 µM

COc1ccc(OC)c(C(=O)/C=C/c2cc(O)c(O)cc2F)c1
TGI [1]: > 77.4 µM
TGI [3]: 19.7 µM
TGI [4]: 27.4 µM
TGI [5]: 0.534 µM
TGI [6]: 15.4 µM
TGI [7]: > 90 µM
TGI [8]: 38.9 µM
TGI [9]: 35.8 µM
TGI [10]: > 67.5 µM
TGI [11]: 28.2 µM

CN(C)Cc1cc(C(C)(C)C)cc(CNC2CCCCC2)c1O
TGI [1]: > 100 µM
TGI [3]: 34.4 µM
TGI [4]: 64 µM
TGI [5]: > 100 µM
TGI [7]: > 100 µM
TGI [8]: 73.3 µM
TGI [9]: > 100 µM
TGI [10]: > 100 µM
TGI [11]: > 100 µM

Cc1ccc(C(=O)Cc2nc3ncccc3[nH]c2=O)cc1
TGI [1]: > 100 µM
TGI [2]: > 100 µM
TGI [3]: > 100 µM
TGI [4]: 72.3 µM
TGI [5]: > 100 µM
TGI [6]: 66.5 µM
TGI [7]: 84 µM
TGI [8]: > 100 µM
TGI [9]: 87.4 µM
TGI [10]: 45.4 µM

O=C(Nc1ccc(Cl)cc1)c1cccc([N+](=O)[O-])c1O
TGI [1]: 14.8 µM
TGI [2]: 7.18 µM
TGI [3]: 32.9 µM
TGI [4]: 9.97 µM
TGI [6]: 7.95 µM
TGI [7]: > 100 µM
TGI [8]: > 100 µM
TGI [9]: 39.6 µM
TGI [10]: 13.7 µM
TGI [11]: 26.1 µM

CC(=O)c1cc2c(s1)C(=O)c1scc(C(C)=O)c1C2=O
TGI [1]: 1.34 µM
TGI [4]: 1.9 µM
TGI [5]: 0.358 µM
TGI [6]: 3.57 µM
TGI [7]: 0.454 µM
TGI [8]: 4.14 µM
TGI [9]: 1.59 µM
TGI [10]: 4.86 µM
TGI [11]: 2.65 µM

OC12C3C4CC5C(C4[C@@H]1Br)C2[C@@](O)(c1c(F)c(F)c(F)c(F)c1F)C53 (some centres undefined)
TGI [1]: 98.9 µM
TGI [2]: > 100 µM
TGI [3]: > 100 µM
TGI [5]: > 100 µM
TGI [7]: > 100 µM
TGI [8]: > 100 µM
TGI [9]: > 100 µM

COC(=O)C1=COC(C)C2C[n+]3ccc4c([nH]c5ccccc54)c3CC12 (centres undefined)
TGI [1]: > 100 µM
TGI [2]: > 100 µM
TGI [3]: > 100 µM
TGI [5]: > 100 µM
TGI [6]: > 100 µM
TGI [7]: > 100 µM
TGI [8]: > 100 µM
TGI [9]: > 100 µM
TGI [10]: > 100 µM
TGI [11]: > 100 µM

Cc1cccc(/C=N/NC(=S)N2CCCCCC2)n1
TGI [1]: 9.32 µM
TGI [2]: 0.241 µM
TGI [3]: 0.441 µM
TGI [4]: 25.3 µM
TGI [5]: > 45.9 µM
TGI [6]: 7.46 µM
TGI [8]: > 72.2 µM
TGI [9]: > 100 µM
TGI [11]: 0.758 µM

OCCN1CN(c2nc(N3CN(CCO)C3)nc(N3CN(CCO)C3)n2)C1
TGI [1]: 70.1 µM
TGI [2]: 40.1 µM
TGI [3]: 34.3 µM
TGI [4]: 39.3 µM
TGI [5]: 32.3 µM
TGI [6]: 51.2 µM
TGI [7]: 85.6 µM
TGI [8]: 60.2 µM
TGI [9]: 37.3 µM
TGI [11]: 57 µM

CC1(C)C2CCC1(C)C(N/C(=C(/C(Cl)=C(Cl)Cl)[N+](=O)[O-])n1nnc3ccccc31)C2 (centres undefined)
TGI [1]: > 100 µM
TGI [3]: > 100 µM
TGI [4]: 39.4 µM
TGI [5]: > 100 µM
TGI [6]: 50.3 µM
TGI [7]: 60.7 µM
TGI [8]: > 100 µM
TGI [9]: > 100 µM
TGI [10]: > 100 µM
TGI [11]: 70 µM

CCN(CC)c1ccc(/C=c2\nc(-c3ccccc3)n3c2nc2ccccc23)cc1
TGI [1]: 35.4 µM
TGI [3]: 37.9 µM
TGI [4]: 52.3 µM
TGI [5]: 24.6 µM
TGI [6]: 60.5 µM
TGI [7]: 32.2 µM
TGI [8]: > 100 µM
TGI [10]: > 100 µM
